Data from patent US20040010001A1, “Methods and compositions for modulating cell proliferation and cell death” (priority 1999, published 2004).
Where two headings read alike, the source gives them in different places.

Assays:
rat tumor cells = assay: Doubling time of exponentially growing cells; format: cell-based; details: treatment with r-bFGF
PC3 tumor cells = assay: Doubling time of exponentially growing cells; format: cell-based, human; details: treatment with r-bFGF
rat MAT-LyLu cells = assay: Restoration of resistance by recombinant FGF in FGF-immunoprecipitated CM; format: cell-based
Method: The study was performed using rat MAT-LyLu cells. The reversal in CM-induced resistance was detected by measuring the changes in BrdU incorporation in treated samples relative to control samples. The source of CM was lung histocultures for both aFGF and bFGF experiments. The study used two controls: no CM (left solid curves, empty circles); with CM (right solid curves, empty squares). Upper left: CM minus […] (filled square); CM minus aFGF plus r-aFGF (filled circles, overlaps with the right CM-control curve). Upper right: CM minus bFGF (filled square, overlaps with the left control curve); CM minus bFGF plus r-bFGF (filled circle, overlaps with the right CM control curve). Lower left: Both the CM minus aFGF and bFGF (filled square) and the CM minus aFGF and bFGF plus aFGF (filled circle) curves overlap with the left control curve. Lower center: CM minus aFGF and bFGF (filled square, overlaps with left control curve); CM minus aFGF and bFGF plus r-bFGF (filled circle). Lower right: CM minus aFGF and bFGF (filled square, overlaps with left control curve); CM minus aFGF and bFGF plus r-aFGF and r-bFGF (filled circle, overlaps with the right CM-control curve).
aFGF or bFGF was immunoprecipitated with their respective monoclonal antibody (1 microgram/ml), in the presence of Protein G PLUS/protein A agarose (Oncogene). This procedure reduced the bFGF level in the original CM to below the detection limit of 5 pg/ml by the ELISA (Oncogene), and the aFGF level in the concentrated CM to below the detection limit by Western blotting.
The third study determined whether aFGF and/or bFGF are required for the resistance. Endogenous aFGF and/or bFGF were removed from the active CM by immunoprecipitation, and then reconstituted the CM using recombinant proteins. […] The fifth study confirmed that aFGF and bFGF were the main cause of chemoresistance, by using only r-aFGF and r-bFGF (i.e., without the immunoprecipitated CM) to induce resistance (FIG. 3). When given alone, r-aFGF had no effect whereas r-bFGF induced a concentration-dependent resistance. […]

[1] = system: human leukemic cell line CCRF-CEM; assay: FGF-induced resistance to fludarabine, MTT assay; format: cell-based; details: 96 h, 96 hour treatment, read-out: concentration required to produce 50%
[2] = system: Human prostate PC3 tumor cells; assay: aFGF/bFGF-induced resistance and reversal by suramin, sulforhodamine B assay; format: cell-based
Method: The experimental conditions are described briefly below. […] Cell number was measured using the sulforhodamine B assay which measures the total protein concentration. […] The FGF-induced resistance was dependent on the FGF concentrations, with a higher resistance at higher FGF concentrations.

[3] = Jodrell et al (1994); cited from earlier work
[4] = system: Human prostate PC3 tumor cells; assay: cells; format: cell-based; details: read-out: IC50, suramin concentration required to result in 50% reduction in BrdU incorporation
Method: PC3 and PC3-LN tumor cells. […] […].
Cells are harvested from subconfluent cultures using trypsin and resuspended in fresh medium before plating. […] Cells are plated in 96 well microtiter plates at a density such that confluence would not be achieved at the end of the drug treatment period. Cells are allowed to attach to the plate surface by growing in drug-free medium for 20 to 24 hr. […] The drug effect should be measured as inhibition of BrdU incorporation, e.g., according to the Cell Proliferation ELISA BrdU (Boehringer Mannheim).

[5] = system: human PC3-LN lung metastases
Method: Animal care was in accordance with the guidelines at the Ohio State University. Several human tumor models were used, including (a) lung metastases derived from intravenous injection of human PC3-LN tumor cells, (b) lung tumors derived from direct injection of human PC3 cells in lungs, and (c) subcutaneously implanted PC3 tumors. Four studies were performed. In all studies, drug treatment was administered intravenously via a tail vein, after the tumor was established. The first and second studies used the intravenous PC3-LN lung metastasis model. Briefly, human PC3-LN cells ([…] in 0.1 ml physiologic saline) were injected intravenously, via a tail vein, into immunodeficient mice. […] Treatment was given twice weekly for three weeks. […] Three days after completion of drug treatments, animals were euthanized and their lungs removed, fixed in Bouin's solution to visualize tumor nodules, and then processed for histologic evaluation. […] The lung surface area (counted as number of pixel) occupied by the tumor was calculated as a fraction of the total lung area, using Adobe PhotoShop. The number of tumor cells in residual tumors and the fraction of apoptotic cells in each tumor were also determined microscopically. Because apoptotic cells disappear over time, a second measure of the extent of apoptosis was the density of non-apoptotic cells in the residual tumors. This was determined by counting the number of non-apoptotic tumor cells in randomly selected microscopic fields at 400× magnification. […] In the case of combination therapy where fewer than 5 tumor nodules remained per animal, all residual cells (between 20 to 600 cells per animal) were counted.

in vivo = details: mouse, iv, 10 mg/kg
Method: (§1) Animal care was in accordance with the guidelines at the Ohio State University. Several human tumor models were used, including (a) lung metastases derived from intravenous injection of human PC3-LN tumor cells, (b) lung tumors derived from direct injection of human PC3 cells in lungs, and (c) subcutaneously implanted PC3 tumors. Four studies were performed. In all studies, drug treatment was administered intravenously via a tail vein, after the tumor was established. The first and second studies used the intravenous PC3-LN lung metastasis model. Briefly, human PC3-LN cells ([…] in 0.1 ml physiologic saline) were injected intravenously, via a tail vein, into immunodeficient mice. […] Treatment was given twice weekly for three weeks. […] The lung surface area (counted as number of pixel) occupied by the tumor was calculated as a fraction of the total lung area, using Adobe PhotoShop. The number of tumor cells in residual tumors and the fraction of apoptotic cells in each tumor were also determined microscopically. […] This was determined by counting the number of non-apoptotic tumor cells in randomly selected microscopic fields at 400× magnification. […] In the case of combination therapy where fewer than 5 tumor nodules remained per animal, all residual cells (between 20 to 600 cells per animal) were counted.

rat MAT-LyLu tumor cells [6] = assay: Cytotoxicity of suramin alone, reduction of BrdU incorporation; format: cell-based; details: read-out: IC50, suramin concentration required to result in 50% reduction in BrdU incorporation
[7] = system: human prostate PC3-LN tumor cells; assay: cells; format: cell-based; details: read-out: IC50, suramin concentration required to result in 50% reduction in BrdU incorporation
rat MAT-LyLu tumor cells [8] = assay: Reversal of CM-induced resistance by FGF antibodies and suramin, BrdU incorporation; format: cell-based; details: CM of histocultures of lung metastases
Method: The source of CM was lung histocultures for the aFGF experiment, and early monolayer lung cultures for the bFGF experiment. The study used four controls: no CM (left solid curves, open circles); addition of 5 μg/ml aFGF or bFGF antibody but no CM (inverted filled triangle, overlaps with the left control curve); addition of CM but no antibody (right solid curves, open square); addition of CM plus a nonspecific antibody, IgG (5 μg/ml, filled diamond, overlaps with the right CM-control curve). Dotted curves, from right to left, addition of aFGF or bFGF antibody concentrations of 0.05 μg/ml (filled circle); 0.1 μg/ml (filled square); 1 or 0.5 μg/ml (filled triangle); and 5 μg/ml (open inverted triangle). […] Similar results were also found for human PC3 prostate tumor cells.
The first study used specific inhibitors of extracellular aFGF and bFGF, i.e., monoclonal antibodies (FIG. 2A). […] In the presence of the active CM, the bFGF antibody produced a concentration-dependent reversal of the CM-induced chemoresistance, with complete reversal by 5 microgram/ml antibody, whereas a nonspecific antibody (i.e., non-immune rabbit IgG) had no effect. For aFGF, the antibody treatment partially reversed the CM-induced resistance; the maximum reversal was about 60% that was obtained with 1 microgram/ml antibody with no significant additional reversal at a 5-fold higher concentration. The second study evaluated the effect of removing aFGF and/or bFGF from the active CM by immunoprecipitation. Removal of bFGF abolished the resistance, whereas removal of aFGF only partially reversed the CM effect. These two studies indicate that both aFGF and bFGF were involved in the resistance, but had different roles.
This study was performed using the rat MAT-LyLu tumor cells as the model tumor cells and using doxorubicin and paclitaxel as the model anticancer agents. The CM used to induce resistance was collected from histocultures of lung metastases (see Table 1). Five microgram/ml anti-bFGF antibody was added.

subcutaneous PC3 tumors = details: suramin 10 mg/kg, doxorubicin 5 mg/kg, twice weekly for 3 weeks
Method: Briefly, PC3 cells (5×10^6 cells) were injected subcutaneously.

clinical = details: human, plasma, 240 mg/m^2
[9] = system: rat MAT-LyLu tumor cells, human prostate PC3 tumor cells, PC3-LN cells; assay: Reversal of CM/FGF-induced resistance by suramin; format: cell-based
Method: The study was performed using rat MAT-LyLu tumor cells (shown here) and human prostate PC3 and PC3-LN tumor cells. The cytotoxic effect was detected by measuring the changes in BrdU incorporation in treated samples relative to control samples.

human PC3 lung tumors = assay: Lung tumors established by direct injection of PC3 cells into the lungs of immunodeficient mice; format: in vivo; details: suramin alone, three doses of 20 mg/kg (n=3)
Method: as §1

[10] = no suramin, relative to control
[11] = doxorubicin study: suramin 10 mg/kg, doxorubicin 5 mg/kg, intravenous twice weekly for three weeks
[12] = paclitaxel study: suramin 10 mg/kg, paclitaxel 15 mg/kg, intravenous twice weekly for three weeks
[13] = suramin 10 mg/kg, doxorubicin 5 mg/kg, intravenous twice weekly for three weeks

Molecule: r-bFGF: human recombinant bFGF, identical to the 18 kDa human bFGF except for the extra methionine at the amino terminus
- doubling time, unchanged by treatment (rat tumor cells): 17 h
- doubling time, unchanged by treatment (PC3 tumor cells): 24 h
- concentration needed relative to the endogenous bFGF concentration in the native CM (rat MAT-LyLu cells; 50 ng/ml versus about 0.9 ng/ml): 55 fold
- concentration of exogenous r-bFGF needed to restore the resistance (rat MAT-LyLu cells; CM depleted of both aFGF and bFGF): 50 ng/mL

Molecule: Nc1nc(F)nc2c1ncn2[C@@H]1O[C@H](CO)[C@@H](O)[C@@H]1O [Fludarabine]
- IC50 ([1]; absence of FGF): 4 µM
- IC50 ([1]; r-aFGF (1 ng/ml) and r-bFGF (3 ng/ml)): 6 µM
- IC50 ([2]; Homo sapiens, read-out: IC50, Control (drug treatment only, without FGF treatment), No suramin, drug 96 hours): 5.15 µM
- IC50 ([2]; Homo sapiens, read-out: IC50, aFGF 0.3 ng/ml + bFGF 1 ng/ml, No suramin, FGF pretreatment 96 hours, drug 96 hours): 13.5 µM
- IC50 ([2]; Homo sapiens, read-out: IC50, aFGF 1 ng/ml + bFGF 3 ng/ml, No suramin, FGF pretreatment 96 hours, drug 96 hours): 21.9 µM
- Resistance, Folds, aFGF 0.3 ng/ml + bFGF 1 ng/ml [2, 10]: 2.61 Folds
- Resistance, Folds, aFGF 1 ng/ml + bFGF 3 ng/ml [2, 10]: 4.25 Folds
- IC50 ([2]; read-out: IC50, Control (without FGF treatment), Suramin, 15 μM, drug 96 hours with 15 μM suramin): 5.2 µM
- IC50 ([2]; read-out: IC50, aFGF 0.3 ng/ml + bFGF 1 ng/ml, With suramin, FGF pretreatment 96 hours, drug 96 hours with 15 micromolar suramin): 4.69 µM
- IC50 ([2]; read-out: IC50, aFGF 1 ng/ml + bFGF 3 ng/ml, With suramin, FGF pretreatment 96 hours, drug 96 hours with 15 micromolar suramin): 5.85 µM

Molecule: Cc1ccc(C(=O)Nc2ccc(S(=O)(=O)O)c3cc(S(=O)(=O)O)cc(S(=O)(=O)O)c23)cc1NC(=O)c1cccc(NC(=O)Nc2cccc(C(=O)Nc3cc(C(=O)Nc4ccc(S(=O)(=O)O)c5cc(S(=O)(=O)O)cc(S(=O)(=O)O)c45)ccc3C)c2)c1 [Suramin]
- total body clearance [3]: 0.0095 liter/hour/m^2
- IC50 [4]: 93 µM
- % Apoptotic cells per tumor [5, 11]: 10 ± 7%
- Density of nonapoptotic cells in residual tumors, cells/field [5, 11]: 139 ± 30 cells/field
- % Apoptotic cells per tumor [5, 12]: 4 ± 3%
- Density of nonapoptotic cells in residual tumors, cells/field [5, 12]: 185 ± 104 cells/field
- antitumor effect and toxicity of suramin alone ([5]; suramin 10 mg/kg alone): no significant antitumor effect, nor toxicity
- % Lung surface area occupied by tumor [5, 13]: 7 ± 3%
- % Tumor-free animals [5, 13]: 0%
- concentration at 72 h (in vivo): ~10 µM
- IC50 (rat MAT-LyLu tumor cells [6]): 235 µM
- IC50 [7]: 98 µM
- suramin concentration that completely inhibited the bFGF-induced resistance (rat MAT-LyLu tumor cells [8]): 1 to 2 µM
- effect on tumor growth (subcutaneous PC3 tumors): no antitumor activity
- concentration at 0 h (clinical): ~90 µg/mL
- concentration at 96 h (clinical): ~18 µg/mL
- concentration needed to fully reverse the FGF-induced resistance [9]: 1 to 15 µM
- animals free of tumors (human PC3 lung tumors): No animals
